The text below walks through data of ChEMBL document CHEMBL5614395 (Eur J Med Chem, 2024).

The series is described as follows: in vitro. The conditions noted are these: human, Caco-2.
For the compound `COc1cc(-n2ncc3c(-c4cccc(-c5ccc(CN[C@H]6C[C@@H](O)C6)c(OC)n5)c4Cl)cccc32)cc(OC)c1CN1CC(C(=O)O)C1`, the apparent permeability from apical to basolateral (Papp A→B) is 0.1 ×10⁻⁶ cm/s.
The compound `COc1cc(-n2ncc3c(-c4cccc(-c5ccc(CN(C)C67CCC(C(=O)O)(CC6)CC7)c(OC)n5)c4Cl)cccc32)cc(OC)c1CN(C)[C@H]1C[C@H](O)C1` gave a Papp A→B of 3 ×10⁻⁶ cm/s.
Next, `COc1cc(-n2ncc3c(-c4cccc(-c5ccc(CN[C@H]6C[C@@H](O)C6)c(OC)n5)c4Cl)cccc32)cc(OC)c1CN(C)C12CCC(C(=O)O)(CC1)CC2`: 0.4 ×10⁻⁶ cm/s.
